{"source": "paper PMC10794144", "about": "“A novel antibiotic class targeting the lipopolysaccharide transporter” (Nature, 2024)", "tested_on": "A. baumannii", "test": "microbe, parasite or virus in culture", "method_in_brief": "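Broth microdilution following CLSI M07 and M100. Inocula were diluted from a 0.5 McFarland suspension in CAMHB. MIC is the lowest compound concentration inhibiting visible growth, or beyond which OD600 ceased to decrease.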", "data": [{"smiles": "CN1C(=O)[C@H](CCCCN)NC(=O)[C@H](CCCN)NCc2cccnc2Sc2c(Cl)ccc(Cl)c2CNC(=O)[C@@H]1Cc1c[nH]c2ccccc12", "note": "[RO7075573]", "values": [{"measurement": "MIC 100%", "setting": "ROB08705, Study LGC293598", "value": "≤0.06", "unit": "µg/mL"}, {"measurement": "MIC 80%", "setting": "ROB08705, Study LGC294355", "value": "≤0.06", "unit": "µg/mL"}, {"measurement": "MIC 100%", "setting": "ROB08705, Study LGC294355", "value": 32, "unit": "µg/mL"}, {"measurement": "MIC 80%", "setting": "ROB08705, Study LGC295147", "value": 0.12, "unit": "µg/mL"}, {"measurement": "MIC 100%", "setting": "ROB08705, Study LGC295147", "value": 1, "unit": "µg/mL"}, {"measurement": "MIC 80%", "setting": "ROB08705, Study LGC296813", "value": "≤0.06", "unit": "µg/mL"}, {"measurement": "MIC 100%", "setting": "ROB08705, Study LGC296813", "value": "≤0.06", "unit": "µg/mL"}, {"measurement": "MIC 80%", "setting": "ROB08705, Study LGC299544", "value": 0.12, "unit": "µg/mL"}, {"measurement": "MIC 100%", "setting": "ROB08705, Study LGC299544", "value": 0.12, "unit": "µg/mL"}, {"measurement": "MIC 80%", "setting": "ROB08705, Study LGC301026", "value": "≤0.06", "unit": "µg/mL"}, {"measurement": "MIC 100%", "setting": "ROB08705, Study LGC301026", "value": "≤0.06", "unit": "µg/mL"}, {"measurement": "MIC 80%", "setting": "ROB08705, Study LGC308175", "value": "≤0.06", "unit": "µg/mL"}, {"measurement": "MIC 100%", "setting": "ROB08705, Study LGC308175", "value": "≤0.06", "unit": "µg/mL"}, {"measurement": "MIC 80%", "setting": "ROB08705, Study ROC010", "value": 0.12, "unit": "µg/mL"}, {"measurement": "MIC 100%", "setting": "ROB08705, Study ROC010", "value": 64, "unit": "µg/mL"}, {"measurement": "MIC 80%", "setting": "ROB08705, Study ROC012", "value": "≤0.06", "unit": "µg/mL"}, {"measurement": "MIC 100%", "setting": "ROB08705, Study ROC012", "value": 0.12, "unit": "µg/mL"}, {"measurement": "MIC 80%", "setting": "ROB08706, Study LGC281440", "value": 0.25, "unit": "µg/mL"}, {"measurement": "MIC 100%", "setting": "ROB08706, Study LGC281440", "value": 16, "unit": "µg/mL"}, {"measurement": "MIC 80%", "setting": "ROB08706, Study LGC282160", "value": 0.25, "unit": "µg/mL"}, {"measurement": "MIC 100%", "setting": "ROB08706, Study LGC282160", "value": 64, "unit": "µg/mL"}, {"measurement": "MIC 80%", "setting": "ROB08706, Study LGC284879", "value": 1, "unit": "µg/mL"}, {"measurement": "MIC 100%", "setting": "ROB08706, Study LGC284879", "value": ">64", "unit": "µg/mL"}, {"measurement": "MIC 80%", "setting": "ROB08706, Study LGC285582", "value": 0.25, "unit": "µg/mL"}, {"measurement": "MIC 100%", "setting": "ROB08706, Study LGC285582", "value": 64, "unit": "µg/mL"}, {"measurement": "MIC 80%", "setting": "ROB08706, Study LGC286210", "value": 0.5, "unit": "µg/mL"}, {"measurement": "MIC 100%", "setting": "ROB08706, Study LGC286210", "value": 64, "unit": "µg/mL"}, {"measurement": "MIC 80%", "setting": "ROB08706, Study LGC293598", "value": 0.5, "unit": "µg/mL"}, {"measurement": "MIC 100%", "setting": "ROB08706, Study LGC293598", "value": ">64", "unit": "µg/mL"}, {"measurement": "MIC 80%", "setting": "ROB08706, Study LGC294355", "value": 0.5, "unit": "µg/mL"}, {"measurement": "MIC 100%", "setting": "ROB08706, Study LGC294355", "value": ">64", "unit": "µg/mL"}, {"measurement": "MIC 80%", "setting": "ROB08706, Study LGC295147", "value": 0.25, "unit": "µg/mL"}, {"measurement": "MIC 100%", "setting": "ROB08706, Study LGC295147", "value": 64, "unit": "µg/mL"}, {"measurement": "MIC 80%", "setting": "ROB08706, Study LGC296813", "value": 0.5, "unit": "µg/mL"}, {"measurement": "MIC 100%", "setting": "ROB08706, Study LGC296813", "value": 64, "unit": "µg/mL"}, {"measurement": "MIC 80%", "setting": "ROB08706, Study LGC299544", "value": 0.5, "unit": "µg/mL"}, {"measurement": "MIC 100%", "setting": "ROB08706, Study LGC299544", "value": 64, "unit": "µg/mL"}, {"measurement": "MIC 80%", "setting": "ROB08706, Study LGC301026", "value": 0.5, "unit": "µg/mL"}, {"measurement": "MIC 100%", "setting": "ROB08706, Study LGC301026", "value": 64, "unit": "µg/mL"}, {"measurement": "MIC 80%", "setting": "ROB08706, Study LGC308175", "value": 0.5, "unit": "µg/mL"}, {"measurement": "MIC 100%", "setting": "ROB08706, Study LGC308175", "value": 64, "unit": "µg/mL"}, {"measurement": "MIC 80%", "setting": "ROB08706, Study ROC010", "value": 0.5, "unit": "µg/mL"}, {"measurement": "MIC 100%", "setting": "ROB08706, Study ROC010", "value": 0.5, "unit": "µg/mL"}, {"measurement": "MIC 80%", "setting": "ROB08706, Study ROC012", "value": 0.5, "unit": "µg/mL"}, {"measurement": "MIC 100%", "setting": "ROB08706, Study ROC012", "value": 32, "unit": "µg/mL"}, {"measurement": "MIC 80%", "setting": "ROB08707, Study LGC281440", "value": "≤0.06", "unit": "µg/mL"}, {"measurement": "MIC 100%", "setting": "ROB08707, Study LGC281440", "value": 16, "unit": "µg/mL"}, {"measurement": "MIC 80%", "setting": "ROB08707, Study LGC282160", "value": 0.12, "unit": "µg/mL"}, {"measurement": "MIC 100%", "setting": "ROB08707, Study LGC282160", "value": 64, "unit": "µg/mL"}, {"measurement": "MIC 80%", "setting": "ROB08707, Study LGC284879", "value": 0.12, "unit": "µg/mL"}, {"measurement": "MIC 100%", "setting": "ROB08707, Study LGC284879", "value": ">64", "unit": "µg/mL"}, {"measurement": "MIC 80%", "setting": "ROB08707, Study LGC285582", "value": 0.12, "unit": "µg/mL"}, {"measurement": "MIC 100%", "setting": "ROB08707, Study LGC285582", "value": 64, "unit": "µg/mL"}, {"measurement": "MIC 80%", "setting": "ROB08707, Study LGC286210", "value": 0.12, "unit": "µg/mL"}, {"measurement": "MIC 100%", "setting": "ROB08707, Study LGC286210", "value": 64, "unit": "µg/mL"}, {"measurement": "MIC 80%", "setting": "ROB08707, Study LGC293598", "value": "≤0.06", "unit": "µg/mL"}, {"measurement": "MIC 100%", "setting": "ROB08707, Study LGC293598", "value": ">64", "unit": "µg/mL"}, {"measurement": "MIC 80%", "setting": "ROB08707, Study LGC294355", "value": 0.12, "unit": "µg/mL"}, {"measurement": "MIC 100%", "setting": "ROB08707, Study LGC294355", "value": ">64", "unit": "µg/mL"}, {"measurement": "MIC 80%", "setting": "ROB08707, Study LGC295147", "value": 0.12, "unit": "µg/mL"}, {"measurement": "MIC 100%", "setting": "ROB08707, Study LGC295147", "value": 64, "unit": "µg/mL"}, {"measurement": "MIC 80%", "setting": "ROB08707, Study LGC296813", "value": 0.12, "unit": "µg/mL"}, {"measurement": "MIC 100%", "setting": "ROB08707, Study LGC296813", "value": 64, "unit": "µg/mL"}, {"measurement": "MIC 80%", "setting": "ROB08707, Study LGC299544", "value": 0.12, "unit": "µg/mL"}, {"measurement": "MIC 100%", "setting": "ROB08707, Study LGC299544", "value": 64, "unit": "µg/mL"}, {"measurement": "MIC 80%", "setting": "ROB08707, Study LGC301026", "value": 0.25, "unit": "µg/mL"}, {"measurement": "MIC 100%", "setting": "ROB08707, Study LGC301026", "value": 64, "unit": "µg/mL"}, {"measurement": "MIC 80%", "setting": "ROB08707, Study LGC308175", "value": "≤0.06", "unit": "µg/mL"}, {"measurement": "MIC 100%", "setting": "ROB08707, Study LGC308175", "value": 64, "unit": "µg/mL"}, {"measurement": "MIC 80%", "setting": "ROB08707, Study ROC010", "value": 0.12, "unit": "µg/mL"}, {"measurement": "MIC 100%", "setting": "ROB08707, Study ROC010", "value": 0.12, "unit": "µg/mL"}, {"measurement": "MIC 80%", "setting": "ROB08707, Study ROC012", "value": 0.12, "unit": "µg/mL"}, {"measurement": "MIC 100%", "setting": "ROB08707, Study ROC012", "value": 32, "unit": "µg/mL"}, {"measurement": "MIC 80%", "setting": "ROB08708, Study LGC281440", "value": "≤0.06", "unit": "µg/mL"}, {"measurement": "MIC 100%", "setting": "ROB08708, Study LGC281440", "value": 16, "unit": "µg/mL"}, {"measurement": "MIC 80%", "setting": "ROB08708, Study LGC282160", "value": 0.12, "unit": "µg/mL"}, {"measurement": "MIC 100%", "setting": "ROB08708, Study LGC282160", "value": 64, "unit": "µg/mL"}, {"measurement": "MIC 80%", "setting": "ROB08708, Study LGC284879", "value": 0.12, "unit": "µg/mL"}, {"measurement": "MIC 100%", "setting": "ROB08708, Study LGC284879", "value": ">64", "unit": "µg/mL"}, {"measurement": "MIC 80%", "setting": "ROB08708, Study LGC285582", "value": "≤0.06", "unit": "µg/mL"}, {"measurement": "MIC 100%", "setting": "ROB08708, Study LGC285582", "value": 64, "unit": "µg/mL"}, {"measurement": "MIC 80%", "setting": "ROB08708, Study LGC286210", "value": 0.12, "unit": "µg/mL"}, {"measurement": "MIC 100%", "setting": "ROB08708, Study LGC286210", "value": 64, "unit": "µg/mL"}, {"measurement": "MIC 80%", "setting": "ROB08708, Study LGC293598", "value": "≤0.06", "unit": "µg/mL"}, {"measurement": "MIC 100%", "setting": "ROB08708, Study LGC293598", "value": ">64", "unit": "µg/mL"}, {"measurement": "MIC 80%", "setting": "ROB08708, Study LGC294355", "value": 0.12, "unit": "µg/mL"}, {"measurement": "MIC 100%", "setting": "ROB08708, Study LGC294355", "value": ">64", "unit": "µg/mL"}]}]}
